Measurements from patent US7820379B2, “Process for high throughput screening of CpG-based immuno-agonist/antagonist” (Coley Pharmaceutical GmbH, priority 2000, dated 2010).

Each substance was assayed against T1, human TLR9 (Homo sapiens, UniProt Q9NR96, H530R/Q688R) (assay: NF-κB-luciferase activation in 293 cells transfected with human TLR9 (293-hTLR9-luc)). Conditions: 293 cells transiently transfected with hTLR9 and NF-κB-luc; 8 h; ODN 2 μM, LPS 100 ng/ml.
T1 construct: expressed in transfected cells
T1 sequence (Q9NR96 26-1032 H530R/Q688R): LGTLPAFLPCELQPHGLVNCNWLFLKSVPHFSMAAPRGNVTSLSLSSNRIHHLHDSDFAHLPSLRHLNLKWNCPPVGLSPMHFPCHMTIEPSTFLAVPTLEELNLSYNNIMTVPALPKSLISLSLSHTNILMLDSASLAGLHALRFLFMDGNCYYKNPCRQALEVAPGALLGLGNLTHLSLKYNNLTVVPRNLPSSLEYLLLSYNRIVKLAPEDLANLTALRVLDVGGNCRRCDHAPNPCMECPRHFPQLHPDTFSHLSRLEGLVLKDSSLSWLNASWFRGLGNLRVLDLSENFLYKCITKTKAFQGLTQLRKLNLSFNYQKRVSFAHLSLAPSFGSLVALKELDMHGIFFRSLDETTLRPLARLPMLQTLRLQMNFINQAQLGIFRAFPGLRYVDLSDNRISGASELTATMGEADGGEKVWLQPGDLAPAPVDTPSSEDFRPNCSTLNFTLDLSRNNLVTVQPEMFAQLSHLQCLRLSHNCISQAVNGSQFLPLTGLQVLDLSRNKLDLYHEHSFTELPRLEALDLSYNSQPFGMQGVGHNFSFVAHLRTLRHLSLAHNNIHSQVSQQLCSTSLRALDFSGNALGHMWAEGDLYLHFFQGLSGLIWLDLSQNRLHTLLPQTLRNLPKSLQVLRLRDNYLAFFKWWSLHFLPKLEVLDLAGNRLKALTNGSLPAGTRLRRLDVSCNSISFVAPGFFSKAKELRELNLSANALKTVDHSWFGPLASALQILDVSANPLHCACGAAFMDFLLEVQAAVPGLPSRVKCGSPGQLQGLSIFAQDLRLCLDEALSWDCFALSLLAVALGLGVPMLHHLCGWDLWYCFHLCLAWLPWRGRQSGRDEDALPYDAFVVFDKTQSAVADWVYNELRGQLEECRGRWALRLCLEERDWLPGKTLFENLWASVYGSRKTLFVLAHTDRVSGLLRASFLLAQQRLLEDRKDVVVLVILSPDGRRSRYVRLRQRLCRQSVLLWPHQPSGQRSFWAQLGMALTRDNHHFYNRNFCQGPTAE
Assay type: cell-based
Excerpt: Since NF-κB activation is central to the IL-1/TLR signal transduction pathway (Medzhitov R et al., Mol Cell 2:253-258 (1998); Muzio M et al., J Exp Med 187:2097-2101 (1998)), cells were transfected with hTLR9 or co-transfected with hTLR9 and a NF-κB-driven luciferase reporter construct. Human fibroblast 293 cells were transiently transfected with (FIG. 1A) hTLR9 and a six-times NF-κB-luciferase reporter plasmid (NF-κB-luc, kindly provided by Patrick Baeuerle, Munich, Germany) or (FIG. 1B) with hTLR9 alone. After stimulus with CpG-ODN (2006, 2 μM, […], SEQ ID NO:112), GpC-ODN (2006-GC, 2 μM, […], SEQ ID NO:118), LPS (100 ng/ml) or media, NF-κB activation by luciferase readout (8 h, FIG. 1A) or IL-8 production by ELISA (48 h, FIG. 1B) were monitored. Results are representative of three independent experiments.
To generate stable clones expressing human TLR9, murine TLR9, or either TLR9 with the NF-κB-luc reporter plasmid, 293 cells were transfected in 10 cm plates (2×10^6 cells/plate) with 16 μg of DNA and selected with 0.7 mg/ml G418 (PAA Laboratories GmbH, Cölbe, Germany). The clones were also screened for IL-8 production or NF-κB-luciferase activity after stimulation with ODN. Four different types of clones were generated. • 293-hTLR9-luc: expressing human TLR9 and 6-fold NF-κB-luciferase reporter • 293-mTLR9-luc: expressing murine TLR9 and 6-fold NF-κB-luciferase reporter • 293-hTLR9: expressing human TLR9 • 293-mTLR9: expressing murine TLR9 […]
Because stable TLR9 transfectants mirrored primary cell responsiveness to CpG-DNA (FIGS. 4 and 5), it was hypothesized that stable transfectants could potentially discern species-specific CpG-motifs through TLR9 receptors. Therefore 293-hTLR9-luc (expressing human TLR9 and 6-fold NF-κB-luc reporter), 293-mTLR9-luc (expressing murine TLR9 and 6-fold NF-κB-luc reporter), 293-hTLR9 (expressing human TLR9) and 293-mTLR9 (expressing murine TLR9) clones were tested for CpG-DNA motif responsiveness. […] Depicted are both NF-κB-driven luciferase and IL-8 production as readout. […] After lysis of the cells luciferase can be detected photometrically based on an enzymatic reaction by luciferase which creates photons. IL-8 production was monitored using enzyme-linked immunosorbent assay (ELISA). FIG. 11 depicts clones stimulated with ODN 2006 (filled circle), ODN 2006-GC (open circle), ODN 1668 (filled triangle) or ODN 1668-GC (open triangle) at indicated concentrations and NF-κB activation or IL-8 production were measured after 10 and 48 hours, respectively. Results shown in FIG. 11 are representative of three independent experiments. Strikingly, CpG-motif sequence specificity was conferred in a species-specific manner by TLR9. Additionally, the half-maximal concentration for either 2006 or 1668 appears nearly the same as those determined on primary cells (compare FIG. 10 and FIG. 11).
Although 2006 and 1668 are discussed in terms of CpG-motif differences, they are very different in several aspects (see Table 5 for comparison). The lengths are different, 24 versus 20 nucleotides, and 2006 has four CG dinucleotides compared to one in 1668. Additional differences are the CG position relative to the 5′ and 3′ ends and also 5′ sequence differences. In order to determine if motif specificity is a quality of the motif and not the global sequence environment, for this experiment several sequences were produced holding these variables constant. As a starting point, the 1668 sequence was modified by converting the central C to T and the distal TG to CG, thereby creating a second CG in the resulting sequence 5000 (SEQ ID NO:130, Table 5). Then point nucleotide changes were made, progressing toward a 2006-like sequence, 5007 (SEQ ID NO:98). The ODN 5002 (SEQ ID NO:132) is most like 1668 with the exception that C's at positions 12 and 19 have been converted to T's. […]

Substance | NF-κB activation by luciferase readout
TCGTCGTTTTGTCGTTTTGTCGTT [ODN 2006] | responded
lipopolysaccharide [LPS] | not

Same assay, conditions: CpG-ODN 2006 compared with CpG-ODN 1668

Substance | human TLR9 signaling response
TCGTCGTTTTGTCGTTTTGTCGTT [ODN 2006] | significantly stronger

Same assay, conditions: ODN concentration of half-maximal activation; 293-hTLR9-luc cells, NF-κB-driven luciferase readout, 12 hours; read-out: 293-hTLR9 Kac

Substance | EC50
TCCATGACGTTCCTGATGCT (listed as DNA, chemistry not fully specified) [ODN 1668] | > 10 µM
TCGTCGTTTTGTCGTTTTGTCGTT [ODN 2006] | 0.4 µM
TCCATGACGTTCTTGACGCT (listed as DNA, chemistry not fully specified) [ODN 5000] | 10 µM
TCCATGTCGTTTTTGTTGTT (listed as DNA, chemistry not fully specified) [ODN 5006] | 3 µM
TCCATGAGCTTCCTGATGCT (listed as DNA, chemistry not fully specified) [ODN 1668-GC] | > 10 µM
TGCTGCTTTTGTGCTTTTGTGCTT (listed as DNA, chemistry not fully specified) [ODN 2006-GC] | > 10 µM
TCCATGACGTTCTTGACGTT (listed as DNA, chemistry not fully specified) [ODN 5001] | 7 µM
TCCATGTCGTTTTTGATGTT (listed as DNA, chemistry not fully specified) [ODN 5005] | 3 µM
TCCATGTCGTTTTTGTCGTT (listed as DNA, chemistry not fully specified) [ODN 5007] | 0.7 µM
TCCATGTCGTTCTTGATGTT (listed as DNA, chemistry not fully specified) [ODN 5004] | 5 µM
